Like-named read-outs stand apart in the source and are kept apart here.
Assays:
Format in all cases: cell-based, human
HCT116 cells = test: Antiproliferative activity, Alamar Blue assay, HCT116 cells; parameters: key to HCT116 antiproliferative activity pIC50: pIC50 = -log IC50 (IC50: conc. reducing growth to 50% of control); conditions: for IC50: Homo sapiens, HCT-116, HCT116 cells, read-out: HCT116 antiproliferative activity pIC50 (converted)
Outline: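 HCT116 cells seeded, adhered 24 h, then exposed to compound for 4 days; Alamar Blue (resazurin) added for 4 h at 37 °C, fluorescence read at 540/590 nm. Viability as % of untreated control, triplicate wells; IC50 by probit analysis, reported as pIC50.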

PC-3 cells = test: Antiproliferative activity, Alamar Blue assay, PC-3 cells; conditions: for IC50: Homo sapiens, PC-3, PC3 cells, read-out: PC3 antiproliferative activity pIC50 (converted)
Outline: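 PC-3 cells seeded at 4.5×10^3 cells/ml, left to adhere 24 hr, then exposed to compound for 4 days. Resazurin (Alamar Blue) added for a further 24 hrs at 37° C; fluorescence read at 540/590 nm. Viability as % of untreated control, mean of 3 wells; IC50 by probit analysis, reported as pIC50.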

PC3 cells = test: EB1 Comet (microtubule disruption) assay; conditions: Homo sapiens, PC-3, 1 h, 1 hour treatment, read-out: EB1 pLAC (converted)
Outline: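 PC3 human prostate cancer cells exposed to compound for 1 h at 37 °C (0.6% DMSO final), methanol-fixed, immunostained for Eb1 and imaged at 20×. Value is the lowest active concentration (LAC): the concentration at which Eb1 foci are absent in at least 50% of treated cells.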

Compound: CCc1cc2ccc(C(C)(C#N)Cc3nc(C#N)cc(OC)n3)cc2[nH]c1=O (single isomer, unassigned) [Compound 204]
- HCT116 antiproliferative activity pIC50 (HCT116 cells; HCT116 cells): 7.0
- PC3 antiproliferative activity pIC50 (PC-3 cells; PC3 cells): 6.8

Compound: CCc1cc2c(OC)cc(C(C)(C#N)Cc3nc(OC)cc(OC)n3)cc2[nH]c1=O (single isomer, unassigned) [Compound 230]
- IC50 (HCT116 cells; Alamar Blue): 1580 nM
- IC50 (PC-3 cells; Alamar Blue): 2000 nM
- minimal effective concentration (PC3 cells): 1 µM

Compound: CCc1cc2ccc([C@@](C)(C#N)CCOc3ccc(C#N)cc3)cc2[nH]c1=O (single isomer, unassigned) [Compound 273]
- IC50 (HCT116 cells; Alamar Blue): 398 nM
- IC50 (PC-3 cells; Alamar Blue): 398 nM
- minimal effective concentration (PC3 cells): 0.1 µM

Compound: CCc1cc2ccc([C@](C)(C#N)CCOc3ccc(C#N)cc3)cc2[nH]c1=O (single isomer, unassigned) [Compound 275]
- IC50 (HCT116 cells; Alamar Blue): 10000 nM
- IC50 (PC-3 cells; Alamar Blue): 10000 nM

Compound: CCc1cc2ccc([C@](C)(C#N)Cc3cccc(/C=C/S(C)(=O)=O)c3)cc2[nH]c1=O (single isomer, unassigned) [Compound 291]
- IC50 (HCT116 cells; Alamar Blue): 200 nM
- IC50 (PC-3 cells; Alamar Blue): 501 nM

Compound: CCc1cc2ccc([C@@](C)(C#N)Cc3cccc(C#CCO)c3)cc2[nH]c1=O (single isomer, unassigned) [Compound 295]
- IC50 (HCT116 cells; Alamar Blue): 10000 nM
- IC50 (PC-3 cells; Alamar Blue): 10000 nM

Compound: CCc1cc2ccc([C@](C)(C#N)Cc3cccc(C#CCO)c3)cc2[nH]c1=O (single isomer, unassigned) [Compound 296]
- IC50 (HCT116 cells; Alamar Blue): 126 nM
- IC50 (PC-3 cells; Alamar Blue): 100 nM

Compound: CCc1cc2ccc([C@@](C)(C#N)Cc3cc(OC)nc(C)n3)cc2[nH]c1=O (single isomer, unassigned) [Compound 361]
- IC50 (HCT116 cells; Alamar Blue): 10000 nM
- IC50 (PC-3 cells; Alamar Blue): 10000 nM

Compound: CCc1cc2ccc([C@](C)(C#N)Cc3cc(OC)nc(C)n3)cc2[nH]c1=O (single isomer, unassigned) [Compound 362]
- IC50 (HCT116 cells; Alamar Blue): 1000 nM
- IC50 (PC-3 cells; Alamar Blue): 631 nM

Compound: Cc1cc2ccc([C@@](C)(C#N)C3CCc4ccccc43)cc2[nH]c1=O (single isomer, unassigned) [Compound 385]
- IC50 (HCT116 cells; Alamar Blue): 3980 nM
- IC50 (PC-3 cells; Alamar Blue): 10000 nM
- minimal effective concentration (PC3 cells): 10 µM

Compound: Cc1cc2ccc([C@](C)(C#N)C3CCc4ccccc43)cc2[nH]c1=O (single isomer, unassigned) [Compound 386]
- IC50 (HCT116 cells; Alamar Blue): 200 nM
- IC50 (PC-3 cells; Alamar Blue): 200 nM
- minimal effective concentration (PC3 cells): 0.316 µM

Compound: CCc1cc2ccc(C(C)(C#N)Cc3cccc(OCCCN4CCNCC4)c3)cc2[nH]c1=O (stereo not drawn) [Compound 25]
- IC50 (HCT116 cells): 3160 nM
- IC50 (PC-3 cells): 6310 nM
- minimal effective concentration (PC3 cells): > 10 µM

Compound: CCc1cc2ccc(C(C#N)(Cc3ccccc3)c3ccc(C#N)cc3)cc2[nH]c1=O (stereo not drawn) [Compound 26]
- IC50 (HCT116 cells): 2510 nM
- IC50 (PC-3 cells): > 10000 nM
- minimal effective concentration (PC3 cells): > 10 µM

Compound: CCc1cc2ccc(C(C#N)(Cc3ccccc3)c3ccccc3)cc2[nH]c1=O (stereo not drawn) [Compound 27]
- IC50 (HCT116 cells): 3980 nM
- IC50 (PC-3 cells): 6310 nM
- minimal effective concentration (PC3 cells): 10 µM

Compound: CCc1cc2ccc(C(C#N)(Cc3ccccc3)C3CC3)cc2[nH]c1=O (stereo not drawn) [Compound 29]
- IC50 (HCT116 cells): 1260 nM
- IC50 (PC-3 cells): 5010 nM
- minimal effective concentration (PC3 cells): 1 µM

Compound: CCc1cc2ccc(C(C#N)(Cc3ccccc3)C(C)C)cc2[nH]c1=O (stereo not drawn) [Compound 30]
- IC50 (HCT116 cells): 1260 nM
- IC50 (PC-3 cells): 6310 nM
- minimal effective concentration (PC3 cells): 3.16 µM

Compound: CCCC(C#N)(Cc1ccccc1)c1ccc2cc(CC)c(=O)[nH]c2c1 (stereo not drawn) [Compound 31]
- IC50 (HCT116 cells): 3160 nM
- IC50 (PC-3 cells): 3160 nM
- minimal effective concentration (PC3 cells): 10 µM

Compound: CCc1cc2ccc(C(C)(C#N)Cc3cc(OC)ccc3F)cc2[nH]c1=O (stereo not drawn) [Compound 171]
- IC50 (HCT116 cells): 126 nM
- IC50 (PC-3 cells): 200 nM
- minimal effective concentration (PC3 cells): 0.1 µM

Compound: CCc1cc2ccc(C(C)(C#N)Cc3cccc(-c4ccc[nH]4)c3)cc2[nH]c1=O (stereo not drawn) [Compound 176]
- IC50 (HCT116 cells; Alamar Blue): 5010 nM
- IC50 (PC-3 cells; Alamar Blue): 5010 nM
- minimal effective concentration (PC3 cells): 1 µM

Compound: CCc1cc2ccc(C(C)(C#N)Cc3cccc(CCS(C)(=O)=O)c3)cc2[nH]c1=O (stereo not drawn) [Compound 178]
- IC50 (HCT116 cells; Alamar Blue): 3980 nM
- IC50 (PC-3 cells; Alamar Blue): 10000 nM
- minimal effective concentration (PC3 cells): 3.16 µM

Compound: Cc1cc2ccc(C(C)(C#N)Cc3cccc(C=Cc4ccccc4)c3)cc2[nH]c1=O (stereo not drawn) [Compound 179]
- IC50 (HCT116 cells; Alamar Blue): 2000 nM
- IC50 (PC-3 cells; Alamar Blue): 7940 nM
- minimal effective concentration (PC3 cells): 1.78 µM

Compound: CCc1cc2ccc(C(C)(C#N)Cc3cccc(/C=N/OC)c3)cc2[nH]c1=O (stereo not drawn) [Compound 185]
- IC50 (HCT116 cells): 200 nM
- IC50 (PC-3 cells): 251 nM
- minimal effective concentration (PC3 cells): 0.1 µM

Compound: CCc1cc2ccc(C(C)(C#N)Cc3cccc(C(=N)NO)c3)cc2[nH]c1=O (stereo not drawn) [Compound 186]
- IC50 (HCT116 cells; Alamar Blue): 3980 nM
- IC50 (PC-3 cells; Alamar Blue): 5010 nM
- minimal effective concentration (PC3 cells): 3.16 µM

Compound: Cc1cc2ccc(C(C)(C#N)Cc3cccc(Oc4ccc(F)cc4)c3)cc2[nH]c1=O (stereo not drawn) [Compound 192]
- IC50 (HCT116 cells; Alamar Blue): 631 nM
- IC50 (PC-3 cells; Alamar Blue): 1580 nM
- minimal effective concentration (PC3 cells): 1 µM

Compound: CCc1cc2ccc(C(C)(C#N)Cc3cccc(OCCCC#N)c3)cc2[nH]c1=O (stereo not drawn) [Compound 194]
- IC50 (HCT116 cells): 501 nM
- IC50 (PC-3 cells): 631 nM
- minimal effective concentration (PC3 cells): 1 µM

Compound: CCc1cc2ccc(C(C)(C#N)Cc3cccc(OCCC#N)c3)cc2[nH]c1=O (stereo not drawn) [Compound 195]
- IC50 (HCT116 cells; Alamar Blue): 251 nM
- IC50 (PC-3 cells; Alamar Blue): 251 nM
- minimal effective concentration (PC3 cells): 0.0316 µM

Compound: C#CCOc1cccc(CC(C)(C#N)c2ccc3cc(CC)c(=O)[nH]c3c2)c1 (stereo not drawn) [Compound 196]
- IC50 (HCT116 cells; Alamar Blue): 631 nM
- IC50 (PC-3 cells; Alamar Blue): 1000 nM

Compound: CCc1cc2ccc(C(C)(C#N)COCc3ccccc3)cc2[nH]c1=O (stereo not drawn) [Compound 197]
- IC50 (HCT116 cells; Alamar Blue): 2000 nM
- IC50 (PC-3 cells; Alamar Blue): 6310 nM

Compound: CCc1cc2ccc(C(C)(C#N)Cc3cccc(OCCS(C)(=O)=O)c3)cc2[nH]c1=O (stereo not drawn) [Compound 201]
- IC50 (HCT116 cells): 2510 nM
- IC50 (PC-3 cells): 5010 nM
- minimal effective concentration (PC3 cells): 0.562 µM

Compound: CCc1cc2ccc(C(C)(C#N)Cc3nc(Cl)cc(OC)n3)cc2[nH]c1=O (stereo not drawn) [Compound 202]
- IC50 (HCT116 cells; Alamar Blue): 200 nM
- IC50 (PC-3 cells; Alamar Blue): 251 nM

Compound: CCc1cc2ccc(C(C)(C#N)Cc3nc(N(C)C)cc(N(C)C)n3)cc2[nH]c1=O (stereo not drawn) [Compound 205]
- IC50 (HCT116 cells; Alamar Blue): 631 nM
- IC50 (PC-3 cells; Alamar Blue): 1260 nM
- minimal effective concentration (PC3 cells): 1 µM

Compound: Cc1nc(-c2ccccc2)sc1CC(C)(C#N)c1ccc2cc(C)c(=O)[nH]c2c1 (stereo not drawn) [Compound 235]
- IC50 (HCT116 cells; Alamar Blue): 1580 nM
- IC50 (PC-3 cells; Alamar Blue): 1580 nM

Compound: CCc1cc2ccc(C(C)(C#N)Cc3cccc(C(=O)OC(C)C)c3)cc2[nH]c1=O (stereo not drawn) [Compound 255]
- IC50 (HCT116 cells; Alamar Blue): 158 nM
- IC50 (PC-3 cells; Alamar Blue): 251 nM

Compound: CCc1cc2ccc(C(C)(C#N)Cc3cc(Br)cc(N(C)C)c3)cc2[nH]c1=O (stereo not drawn) [Compound 260]
- IC50 (HCT116 cells; Alamar Blue): 158 nM
- IC50 (PC-3 cells; Alamar Blue): 200 nM

Compound: CCc1cc2ccc(C(C)(C#N)Cc3cc(C(C)C)ccc3OC)cc2[nH]c1=O (stereo not drawn) [Compound 288]
- IC50 (HCT116 cells; Alamar Blue): 10000 nM
- IC50 (PC-3 cells; Alamar Blue): 2000 nM

Compound: CCc1cc2ccc(C(C)(C#N)Cc3cc(Cl)nc(N(C)C)c3)cc2[nH]c1=O (stereo not drawn) [Compound 323]
- IC50 (HCT116 cells; Alamar Blue): 631 nM
- IC50 (PC-3 cells; Alamar Blue): 1000 nM

Compound: CCc1cc2ccc(C(C)(C#N)Cc3cccc(NC)n3)cc2[nH]c1=O (stereo not drawn) [Compound 339]
- IC50 (HCT116 cells; Alamar Blue): 2000 nM
- IC50 (PC-3 cells; Alamar Blue): 3160 nM

Compound: CCc1cc2ccc(C(C)(C#N)Cc3ccc4c(c3)OC(F)(F)O4)cc2[nH]c1=O (stereo not drawn) [Compound 346]
- IC50 (PC-3 cells; Alamar Blue): 3160 nM

Compound: CCc1cc2ccc(C(C)(C#N)Cc3nc(OC)cc(N(C)C)n3)cc2[nH]c1=O (stereo not drawn) [Compound 355]
- IC50 (HCT116 cells; Alamar Blue): 200 nM
- IC50 (PC-3 cells; Alamar Blue): 398 nM

Compound: CCc1cc2ccc(C(C)(C#N)Cc3cccc4[nH]ccc34)cc2[nH]c1=O (stereo not drawn) [Compound 379]
- IC50 (HCT116 cells; Alamar Blue): 1260 nM
- IC50 (PC-3 cells; Alamar Blue): 1260 nM

Compound: Cc1cc2ccc(C(C)(C#N)Cc3cccc(/C=C/CCO)c3)cc2[nH]c1=O (stereo not drawn) [Compound 409]
- IC50 (HCT116 cells; Alamar Blue): 398 nM
- IC50 (PC-3 cells; Alamar Blue): 501 nM

— patent US8778966B2, “Quinolinone derivatives as PARP and tank inhibitors” (Janssen Pharmaceutica, NV, priority 2007, dated 2014)
